Consider two compounds from patent publication US11760795B2, “Monoclonal antibodies to growth and differentiation factor 15 (GDF-15), and uses thereof for treating cancer cachexia and cancer” (JULIUS-MAXIMILIANS-UNIVERSITÄT WÜRZBURG, priority 2014, dated 2023).

pKd: −log10 of the molar value. Values joined by “and” are separate entries in the source; they are usually repeats but may differ in a detail not shown here. Equal entries are not always repeated.

Assay [1] can be described thus: Study No. 140123: feed consumption of UACC-257 inoculated mice. It is filed as in vivo, Balb/c^nu/nu mice. Conditions: average over day 17-34 intervals, with standard deviation. Here is the method:
Treatment of cancer-induced weight loss with anti-GDF-15 antibodies. In the underlying animal study No. 140123, 10 Balb/c^nu/nu mice per treatment group were subcutaneously inoculated with 10×10^6 UACC-257 cells per animal in a 1:1 volume ratio with matrigel (100 μl cells+100 μl matrigel). The animals were treated on the same day with the respective antibodies, as indicated below:
In addition to evaluating the mean body weight of the mice, the feed consumption of the mice was evaluated by pairwise comparisons of the study groups (Table 1).

For assay [2] the following is noted: comparison value, antigen not given; read-out: equilibrium dissociation constant of therapeutic antibody; cited from earlier work.
The target of another assay is T1, human GDF-15 (Homo sapiens, UniProt Q99988).
T1 sequence (Q99988 with tags, fused parts or gaps limits assumed): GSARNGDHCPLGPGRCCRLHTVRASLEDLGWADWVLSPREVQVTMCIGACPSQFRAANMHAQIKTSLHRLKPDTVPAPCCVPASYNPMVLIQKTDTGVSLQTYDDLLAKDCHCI
The experiment in a line: Kd determination by Surface Acoustic Wave (SAW) gold chip biosensors. The format is binding. Conditions: murine B1-23 stabilized with 0.2% BSA, H1L5 as CHO supernatant. The text has this: Determination of Kd values of anti-GDF-15 antibodies. The Kd values of different anti-GDF-15 antibodies were compared using Surface Acoustic Wave (SAW) gold chip biosensors technology (SAW Instruments GmbH, Schwertberger Str. 16, D-53177 Bonn, Germany):
The murine antibody (B1-23) as well as the chimeric B1-23 antibody were present in purified form. The H1L5 humanized B1-23 antibody was a serum-free CHO cell culture supernatant.

Consider `CN(C)/N=N/c1[nH]cnc1C(N)=O` [dacarbazine, Dacarbazine, reference compound], for which the “Feed consumption per mouse and day” value in assay [1] is listed as 2.8 ± 0.2 g.
Take “Rituximab: therapeutically used antibody; control antibody in SAW assay”: the pKd in assay [2] was ~8.10 and 8.10; with human GDF-15, 5.95.
